System: THP1 cells
Assay type: cell-based, human
Conditions: CA-4948 vs DMSO in THP1 cells

Cc1cc(-c2nc(C(=O)Nc3cc4oc(N5CCOCC5)nc4nc3N3CC[C@@H](O)C3)co2)ccn1 [CA-4948, emavusertib]
Log(FC) of gene LOC101929243: 0.7647 | Log(FC) of gene LOC101929264: 0.8417 | Log(FC) of gene LOC101929280: 0.7936 | Log(FC) of gene LOC101929661: 0.748 | Log(FC) of gene LOC101929747: 0.6127 | Log(FC) of gene LOC101929814: −0.8463 | Log(FC) of gene LOC102467073: 0.73 | Log(FC) of gene LOC102723589: 0.8153 | Log(FC) of gene LOC102723616: 0.7122 | Log(FC) of gene LOC102723714: 0.6674 | Log(FC) of gene LOC102723959: 0.9881 | Log(FC) of gene LOC102723975: 1.408 | Log(FC) of gene LOC102724098: −0.6399 | Log(FC) of gene LOC102724169: 0.726 | Log(FC) of gene LOC102724217: 0.6865 | Log(FC) of gene LOC102724235: 0.7375 | Log(FC) of gene LOC102724248: 0.652 | Log(FC) of gene LOC102724409: 1.429 | Log(FC) of gene LOC102724528: −0.8481 | Log(FC) of gene LOC102724545: 0.8513 | Log(FC) of gene LPAR2: 0.7255 | Log(FC) of gene M1AP: 0.7754 | Log(FC) of gene MAMDC4: 0.628 | Log(FC) of gene MBLAC1: −0.6134 | Log(FC) of gene MDGA1: 0.7307 | Log(FC) of gene METTL12: 0.6315 | Log(FC) of gene MFI2-AS1: 0.5997 | Log(FC) of gene MGC12916: −0.9124 | Log(FC) of gene MGC16142: 0.5952 | Log(FC) of gene MIR570: 1.064 | Log(FC) of gene MIR1244-1: 0.6309 | Log(FC) of gene MIR3187: 1.121 | Log(FC) of gene MROH6: 0.8417 | Log(FC) of gene MYLK-AS1: 1.091 | Log(FC) of gene MYO7B: 0.6068 | Log(FC) of gene NGFR: 0.8097 | Log(FC) of gene NOL3: 0.6401 | Log(FC) of gene NPFF: 0.6633 | Log(FC) of gene NPIPA3: 1.643 | Log(FC) of gene NPIPA8: 0.8183 | Log(FC) of gene ORM1: 0.6834 | Log(FC) of gene PAPPA2: 0.8397 | Log(FC) of gene PAQR6: 0.6274 | Log(FC) of gene PAX8: −0.6687 | Log(FC) of gene PCBP3: 0.5937 | Log(FC) of gene PCOLCE2: −0.6424 | Log(FC) of gene PDE5A: 0.8121 | Log(FC) of gene PDPN: 0.7486 | Log(FC) of gene PITX2: 0.6882 | Log(FC) of gene POLN: 1.016 | Log(FC) of gene POTEE: 1.077 | Log(FC) of gene PPIEL: 0.6279 | Log(FC) of gene PPP1R13L: 0.6598 | Log(FC) of gene PPP1R32: 0.5902 | Log(FC) of gene PROB1: 0.6297 | Log(FC) of gene PRR22: 1.272 | Log(FC) of gene PRSS53: 0.79 | Log(FC) of gene PSMG3-AS1: 0.6249 | Log(FC) of gene PTGER1: 0.6218 | Log(FC) of gene QRICH2: 0.9066 | Log(FC) of gene RAPGEFL1: 0.6118 | Log(FC) of gene RARRES3: 0.6342 | Log(FC) of gene RASSF8-AS1: −0.6459 | Log(FC) of gene RCN3: 0.6431 | Log(FC) of gene RIMS2: −0.6856 | Log(FC) of gene RN7SK: −0.7805 | Log(FC) of gene RN7SL1: −0.6652 | Log(FC) of gene RNU2-2P: −3.126 | Log(FC) of gene RNU86: 0.6578 | Log(FC) of gene RNU105A: −0.7199 | Log(FC) of gene RP3-476K8.3: 0.6781 | Log(FC) of gene RP11-261C10.3: −0.7243 | Log(FC) of gene RP11-307C12.11: 0.6268 | Log(FC) of gene RP11-344E13.3: 0.712 | Log(FC) of gene RP11-454P21.1: 0.5869 | Log(FC) of gene RP11-540A21.2: −0.8218 | Log(FC) of gene RPPH1: −1.864 | Log(FC) of gene RPS18P9: 0.9157 | Log(FC) of gene RPSAP9: −0.6976 | Log(FC) of gene RUFY4: 0.9698 | Log(FC) of gene SAMD5: −0.6977 | Log(FC) of gene SAMD13: −0.6418 | Log(FC) of gene SAP25: 0.962 | Log(FC) of gene SARM1: 0.783 | Log(FC) of gene SCART1: 1.38 | Log(FC) of gene SCN8A: 0.7836 | Log(FC) of gene SCXB: 0.8721 | Log(FC) of gene SEC31B: 0.7359 | Log(FC) of gene SEMA3B: 0.6963 | Log(FC) of gene SEMA3C: −0.6821 | Log(FC) of gene SEMG1: −0.6203 | Log(FC) of gene SERPINB2: −0.6225 | Log(FC) of gene SIGLEC16: 0.7305 | Log(FC) of gene SIM1: −0.8741 | Log(FC) of gene SLC2A14: 0.5944 | Log(FC) of gene SLC7A5P2: 0.8202 | Log(FC) of gene SLC7A11: −0.9711 | Log(FC) of gene SLC22A20: 0.7923 | Log(FC) of gene SLC25A5-AS1: −0.5981 | Log(FC) of gene SLCO2B1: −0.6999 | Log(FC) of gene SLFNL1: 0.599 | Log(FC) of gene SLFNL1-AS1: 0.7053 | Log(FC) of gene SMA4: −0.6311 | Log(FC) of gene SNORD3A: −1.579 | Log(FC) of gene SNORD30: 1.062 | Log(FC) of gene SNORD79: 0.5858 | Log(FC) of gene SNX32: 0.6555 | Log(FC) of gene SPATA41: 0.6171 | Log(FC) of gene SPATC1: 1.175 | Log(FC) of gene SPRED1: −0.6296 | Log(FC) of gene SPTBN5: 1.272 | Log(FC) of gene ST13P4: −0.623 | Log(FC) of gene STX18-AS1: 0.8594 | Log(FC) of gene STXBP5-AS1: 0.6561 | Log(FC) of gene SYDE2: −0.6236 | Log(FC) of gene SYTL2: 0.7254 | Log(FC) of gene TCAM1P: 0.6669 | Log(FC) of gene TEKT4P2: 0.8324 | Log(FC) of gene TESPA1: 0.724 | Log(FC) of gene TLR5: 0.7065 | Log(FC) of gene TMEM9B-AS1: 0.8758 | Log(FC) of gene TMEM86B: 0.6481 | Log(FC) of gene TMEM145: 0.9943 | Log(FC) of gene TMEM150A: −0.8108 | Log(FC) of gene TMEM175: 0.6594 | Log(FC) of gene TMEM191A: 0.6824 | Log(FC) of gene TMEM254-AS1: 0.767 | Log(FC) of gene TMEM255A: −0.5904 | Log(FC) of gene TMPRSS13: 0.6639 | Log(FC) of gene TNFAIP8L2-SCNM1: −1.749 | Log(FC) of gene TNXB: 1.806 | Log(FC) of gene TP53I3: 0.7187 | Log(FC) of gene TPD52L1: 0.7014 | Log(FC) of gene TRIM72: 0.5946 | Log(FC) of gene TSKU: −0.6402 | Log(FC) of gene TSPEAR-AS1: 0.5855 | Log(FC) of gene TTC4: −0.6304 | Log(FC) of gene TUBA1A: 0.5916 | Log(FC) of gene TXLNB: 0.8051 | Log(FC) of gene UCN: 1.177 | Log(FC) of gene UCP3: 0.6963 | Log(FC) of gene ULK4P1: −0.9282 | Log(FC) of gene UNC5CL: 0.8031 | Log(FC) of gene VAMP5: 0.6392 | Log(FC) of gene VWA7: 0.8656 | Log(FC) of gene WDFY3-AS2: 0.6617 | Log(FC) of gene WNK4: 1.507 | Log(FC) of gene WT1-AS: 0.6396 | Log(FC) of gene YJEFN3: 1.024 | Log(FC) of gene ZCWPW2: −0.722 | Log(FC) of gene ZDHHC11: 1.406 | Log(FC) of gene ZNF284: −0.5982 | Log(FC) of gene ZNF491: 0.7713 | Log(FC) of gene ZNF891: −0.7965 | Log(FC) of gene ZP3: 0.9339 | Log(FC) of gene ZSWIM8-AS1: 0.9316

From patent publication US20260034112A1, “MULTI-CYCLIC IRAK1 AND IRAK4 INHIBITING COMPOUNDS AND USES THEREOF” (CHILDREN'S HOSPITAL MEDICAL CENTER, priority 2022, published 2026)
